Biological target: human CCR2 (Homo sapiens, UniProt P41597)
Experiment: CCR2 functional calcium assay (FLIPR calcium flux, hMCP-1 challenge)
Format: cell-based
Set-up: expressed in transfected cells; host or cells: HEK293 EBNA cells
Details: HEK293 EBNA cells transfected with human CCR2, hMCP-1 challenge; read-out: Functional CCR2 fKi
Description: The CCR2 receptor couples through the Gi/Gq signaling pathway and results in activation of calcium mobilization. The functional activity of test compounds was routinely tested by measuring the ability of compounds to antagonize CCR2 activity in a dose dependent manner, in HEK293 EBNA cells transfected with the human CCR2 receptor (hMCP-1 challenge), using a calcium flux Fluorescent Imaging Plate Reader FLIPR assay. Non-transfected HEK293 EBNA cells were used as control of non-specific response.
Briefly, test compounds were dissolved in dimethyl sulfoxide (DMSO) to a concentration of 10 mM and stored in matrix screenmate racks. The required amount of compound was transferred to 96-well compound plates on the day of assay and diluted in assay buffer to the required final concentration; dose-response measurements were assayed by making 1:3 serial dilutions to produce 10 point curves. The compounds were then transferred to 384-well assay plates ready for use. Top concentrations were adjusted depending on the potency of the compounds with a typical concentration range of 30 μM to 0.5 nM being used. The assay buffer used was HBSS buffer supplemented with 20 mM HEPES and 0.1% BSA, pH7.4. The loading/wash buffers were the same as the assay buffer.
Cells were suspended in culture medium at a density of 10000 cells/50 μl (the cell culture media composition was DMEM high glucose supplemented with 10% dialyzed FBS, 250 μg/ml Geneticin, and 400 μg/ml Hygromycin B), transferred to 384-well black/clear Costar plates (Costar #3712) (50 μl/well) and incubated at 37° C., in a 5% CO2/95% air humidified incubator for 16 h. The cells were washed with assay buffer at 37° C. using the Biotek ELx 405, washing 3 times, leaving 20 μl buffer in the well. 20 μl Fluo-4 (Fluo-4 stock solution (1 mM) was prepared by dissolving one vial of Fluo-4 (50 μg) in 45 μl of pluronic acid (240 mg/ml in DMSO). This stock solution of Fluo-4 was then diluted 250 times with loading buffer to give a Fluo-4 concentration of 4 μM. The dye solution (used within 2 h and kept away from light) was added to each well using a repeating multichannel pipette; the cells were then incubated at 37° C. for 60 min. Following the incubation, cells were washed in assay buffer at 37° C. using the Biotek ELx 405, washing 3 times, leaving 40 μl in each well and incubated for 10 min at 37° C. before use. A combined agonist/antagonist protocol was used. Compound (antagonist) was added to the cell plate using the FLIPR. Basal fluorescence was recorded every second for 10 seconds prior to compound addition (10 μl) and fluorescence recorded every second for 1 minute then every 6 seconds for a further 1 minute. Agonist (MCP-1) was then added using the FLIPR and fluorescence recorded as described above.
The positive control (agonist) was human recombinant MCP-1 which was stored as a stock concentration of 10 μM in distilled water and stored at −20° C. (maximal response: 30 nM; EC50 dose: 3-5 nM). The reference compound (antagonist) was RS102895 which was used as a 10 mM DMSO solution and stored at −20° C.
FLIPR responses were measured as peak minus basal fluorescence intensity and were expressed as a percentage of EC50 MCP-1 challenge. Curve-fitting and parameter estimation were carried out using GraphPad Prism 4.0 (GraphPad Software Inc., San Diego, Calif.).

human CCR2, sequence (P41597 whole entry): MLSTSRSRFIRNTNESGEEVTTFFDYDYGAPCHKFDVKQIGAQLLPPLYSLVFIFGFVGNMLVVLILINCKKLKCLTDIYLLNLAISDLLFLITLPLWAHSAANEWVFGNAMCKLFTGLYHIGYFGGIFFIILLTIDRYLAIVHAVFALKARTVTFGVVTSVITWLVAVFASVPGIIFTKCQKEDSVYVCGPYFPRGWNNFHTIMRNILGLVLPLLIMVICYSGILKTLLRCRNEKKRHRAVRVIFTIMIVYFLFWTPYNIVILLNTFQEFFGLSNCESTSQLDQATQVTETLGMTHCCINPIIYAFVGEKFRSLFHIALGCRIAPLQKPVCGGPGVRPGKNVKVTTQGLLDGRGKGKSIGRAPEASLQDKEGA

Ki | SMILES
< 10 nM | Oc1c(Cc2ccc(Cl)cc2)c(C2CCC2)nc2ccnn12 [Example 44, 6-[(4-Chlorophenyl)methyl]-5-cyclobutyl-pyrazolo[1,5-a]pyrimidin-7-ol]
< 10 nM | Oc1c(Cc2ccc(F)c(F)c2)c(C2CCC2)nc2ccnn12 [Example 45, 5-Cyclobutyl-6-[(3,4-difluorophenyl)-methyl]pyrazolo[1,5-a]pyrimidin-7-ol]
< 10 nM | Oc1c(Cc2ccc(F)c(Cl)c2)c(C2CCC2)nc2ccnn12 [Example 46, 6-[(3-Chloro-4-fluorophenyl)methyl]-5-cyclobutylpyrazolo[1,5-a]pyrimidin-7-ol]
< 10 nM | Oc1c(Cc2ccc(F)c(C(F)(F)F)c2)c(C2CCC2)nc2ccnn12 [Example 47, 5-Cyclobutyl-6-{[4-fluoro-3-(trifluoro-methyl)phenyl]methyl}pyrazolo[1,5-a]-pyrimidin-7-ol]
< 10 nM | Oc1c(Cc2cc(F)cc(C(F)(F)F)c2)c(C2CCC2)nc2ccnn12 [Example 48, 5-Cyclobutyl-6-{[3-fluoro-5-(trifluoro-methyl)phenyl]methyl}pyrazolo[1,5-a]-pyrimidin-7-ol]
< 10 nM | Oc1c(Cc2cc(F)c(F)c(F)c2)c(C2CCC2)nc2ccnn12 [Example 49, 5-Cyclobutyl-6-[(3,4,5-trifluorophenyl)-methyl]pyrazolo[1,5-a]pyrimidin-7-ol]
< 10 nM | Oc1c(Cc2ccc(Cl)c(Cl)c2)c(C2CCC2)nc2ccnn12 [Example 50, 5-Cyclobutyl-6-[(3,4-dichlorophenyl)-methyl]pyrazolo[1,5-a]pyrimidin-7-ol]
10 to 100 nM | COCc1nc2ccnn2c(O)c1Cc1ccc(Cl)cc1 [Example 51, 6-[(4-Chlorophenyl)methyl]-5-(methoxy-methyl)pyrazolo[1,5-a]pyrimidin-7-ol]
10 to 100 nM | COCc1nc2ccnn2c(O)c1Cc1ccc(Cl)c(F)c1 [Example 52, 6-[(4-Choro-3-fluorophenyl)methyl]-5-(methoxymethyl)pyrazolo[1,5-a]pyrimidin-7-ol]
< 10 nM | COCc1nc2ccnn2c(O)c1Cc1ccc(Cl)c(Cl)c1 [Example 53, 6-[(3,4-Dichlorophenyl)methyl]-5-(methoxymethyl)pyrazolo[1,5-a]pyrimidin-7-ol]
10 to 100 nM | COCCc1nc2ccnn2c(O)c1Cc1ccc(Cl)cc1 [Example 54, 6-[(4-Chlorophenyl)methyl]-5-(2-methoxyethyl)pyrazolo[1,5-a]pyrimidin-7-ol]
< 10 nM | Oc1c(Cc2ccc(Cl)c(Cl)c2)c(C(F)(F)F)nc2ccnn12 [Example 55, 6-[(3,4-Dichlorophenyl)methyl]-5-(trifluoromethyl)pyrazolo[1,5-a]pyrimidin-7-ol]
< 10 nM | Oc1c(Cc2ccc(Cl)c(Cl)c2)c(C2CCCO2)nc2ccnn12 (stereo not shown) [Example 56, 6-[(3,4-Dichlorophenyl)methyl]-5-(oxolan-2-yl)pyrazolo[1,5-a]pyrimidin-7-ol]
100 to 1000 nM | Cc1nc2c(C)cnn2c(O)c1Cc1ccc(Cl)cc1 [Example 57, 6-[(4-Chlorophenyl)methyl]-3,5-dimethyl-pyrazolo[1,5-a]pyrimidin-7-ol]
10 to 100 nM | Cc1nc2c(Br)cnn2c(O)c1Cc1ccc(Cl)cc1 [Example 58, 3-Bromo-6-[(4-chlorophenyl)methyl]-5-methylpyrazolo[1,5-a]pyrimidin-7-ol]
100 to 1000 nM | Cc1nc2c(C#N)cnn2c(O)c1Cc1ccc(Cl)cc1 [Example 59, 6-[(4-Chlorophenyl)methyl]-7-hydroxy-5-methylpyrazolo[1,5-a]pyrimidine-3-carbonitrile]
10 to 100 nM | Cc1nc2ccnn2c(O)c1Oc1ccc(Cl)c(Cl)c1 [Example 60, 6-(3,4-Dichlorophenoxy)-5-methyl-pyrazolo[1,5-a]pyrimidin-7-ol]

Ki | SMILES
100 to 1000 nM | CCc1nc2ccnn2c(O)c1Oc1cccc(C(F)(F)F)c1 [Example 61, 5-Ethyl-6-[3-(trifluoromethyl)phenoxy] pyrazolo[1,5-a]pyrimidin-7-ol]
< 10 nM | CCc1nc2ccnn2c(O)c1Oc1ccc(F)c(F)c1 [Example 62, 6-(3,4-Difluorophenoxy)-5-ethyl-pyrazolo[1,5-a]pyrimidin-7-ol]
10 to 100 nM | CCc1nc2ccnn2c(O)c1Oc1ccc(F)c(Cl)c1 [Example 63, 6-(3-Chloro-4-fluorophenoxy)-5-ethyl-pyrazolo[1,5-a]pyrimidin-7-ol]
< 10 nM | CC(C)c1nc2ccnn2c(O)c1Oc1ccc(Br)cc1 [Example 66, 6-(4-Bromophenoxy)-5-(propan-2-yl)-pyrazolo[1,5-a]pyrimidin-7-ol]
< 10 nM | CC(C)c1nc2ccnn2c(O)c1Oc1ccc(Cl)c(F)c1 [Example 67, 6-(4-Chloro-3-fluorophenoxy)-5-(propan-2-yl)pyrazolo[1,5-a]pyrimidin-7-ol]
< 10 nM | CC(C)c1nc2ccnn2c(O)c1Oc1ccc(Cl)c(Cl)c1 [Example 68, 6-(3,4-diChlorophenoxy)-5-(propan-2-yl)-pyrazolo[1,5-a]pyrimidin-7-ol]
10 to 100 nM | COC(=O)c1nc2ccnn2c(O)c1Cc1cccc(F)c1 [Example 69, Methyl 6-[(3-fluorophenyl)methyl]-7-hydroxypyrazolo[1,5-a]pyrimidine-5-carboxylate]
10 to 100 nM | CCOC(=O)c1nc2ccnn2c(O)c1Cc1cccc(C(F)(F)F)c1 [Example 71, Ethyl 7-hydroxy-6-{[3-(trifluoromethyl)-phenyl]methyl}pyrazolo[1,5-a]pyrimidine-5-carboxylate]
100 to 1000 nM | CCOC(=O)c1nc2ccnn2c(O)c1Cc1cccc(F)c1 [Example 73, Ethyl 6-[(3-fluorophenyl)methyl]-7-hydroxypyrazolo[1,5-a]pyrimidine-5-carboxylate]
< 10 nM | CCOC(=O)c1nc2ccnn2c(O)c1Cc1ccc(Cl)c(F)c1 [Example 74, Ethyl 6-[(4-chloro-3-fluorophenyl)methyl]-7-hydroxy pyrazolo[1,5-a]pyrimidine-5-carboxylate]
10 to 100 nM | CCOC(=O)c1nc2ccnn2c(O)c1Oc1ccc(Cl)c(F)c1 [Example 75, Ethyl 6-(4-chloro-3-fluorophenoxy)-7-hydroxypyrazolo[1,5-a]pyrimidine-5-carboxylate]
10 to 100 nM | CCOC(=O)c1nc2ccnn2c(O)c1Oc1ccc(Cl)c(Cl)c1 [Example 76, Ethyl 6-(3,4-dichlorophenoxy)-7-hydroxy-pyrazolo[1,5-a]pyrimidine-5-carboxylate]
100 to 1000 nM | Cc1nc2ccnn2c(O)c1Sc1cccc(F)c1 [Example 77, 6-[(3-Fluorophenyl)sulfanyl]-5-methyl-pyrazolo[1,5-a]pyrimidin-7-ol]
100 to 1000 nM | Cc1nc2ccnn2c(O)c1Nc1cccc(F)c1 [Example 78, 6-[(3-Fluorophenyl)amino]-5-methylpyrazolo[1,5-a]pyrimidin-7-ol]
100 to 1000 nM | CCN(c1cccc(F)c1)c1c(C)nc2ccnn2c1O [Example 79, 6-[Ethyl(3-fluorophenyl)amino]-5-methylpyrazolo[1,5-a]pyrimidin-7-ol]
100 to 1000 nM | Cc1nc2ccnn2c(O)c1N(C)c1cccc(F)c1 [Example 80, 6-[(3-Fluorophenyl)(methyl)amino]-5-methylpyrazolo[1,5-a]pyrimidin-7-ol]
< 10 nM | COC(=O)c1nc2ccnn2c(O)c1Cc1cccc(Cl)c1 [Example 81, Methyl 6-[(3-chlorophenyl)methyl]-7-hydroxypyrazolo[1,5-a]pyrimidine-5-carboxylate]

From patent US20130252951A1, “7-HYDROXY-PYRAZOLO[1,5-A] PYRIMIDINE COMPOUNDS AND THEIR USE AS CCR2 RECEPTOR ANTAGONISTS” (Proximagen Limited, priority 2010, published 2013)
